Measured values from patent publication US8552033B2, “Inhibitors of CXCR2” (SANOFI, priority 2006, dated 2013).

Target: human CXCR2 (Homo sapiens (Human), UniProt P25025)
Test: CXCR2 inhibition: calcium fluorescence assay (FLIPR)
Assay type: cell-based
Conditions: chemokine IL-8; CHO-K1 cells stably transfected with human CXCR2 and Gα16; Fluo-4 calcium response
From the text: Determination of CXCR2 Inhibition: Calcium Fluorescence Assay (FLIPR)
The assay is based on the detection of intracellular calcium changes detected by the selective, calcium-chelating dye, Fluo-4 (Molecular Probes). A large fluorescence intensity increase is observed upon calcium association with Fluo-4. The dye is delivered to the cell interior using an acetoxymethylester form of Fluo-4, where the intracellular esterase activity results in the charged species being released and trapped within the cytoplasm of the cell. […] By co-expressing the CXCR2 receptor and the promiscuous Gα16 protein, activation of this chemokine receptor is directed into this phospholipase C cascade resulting in intracellular calcium mobilization.
The CHO-K1 cells stably transfected with human CXCR2 and the promiscuous Gα16 protein were maintained in a log phase of growth at 37° C. and 5% CO2 in the following media: Iscove's, 10% FBS, 1× Penicillin-Streptomycin, 400 μg/mL G418 and 350 μg/mL Zeocin. Approximately 24-48 hours prior to the assay, 20,000-30,000 cells/well were plated onto a 96-well black/clear bottomed assay plate (Becton Dickinson) with a well volume of 180 μl. […] The IC50 value of a compound was determined by calculation of % inhibition of total calcium response to the chemokine.

human CXCR2, sequence (P25025 whole entry): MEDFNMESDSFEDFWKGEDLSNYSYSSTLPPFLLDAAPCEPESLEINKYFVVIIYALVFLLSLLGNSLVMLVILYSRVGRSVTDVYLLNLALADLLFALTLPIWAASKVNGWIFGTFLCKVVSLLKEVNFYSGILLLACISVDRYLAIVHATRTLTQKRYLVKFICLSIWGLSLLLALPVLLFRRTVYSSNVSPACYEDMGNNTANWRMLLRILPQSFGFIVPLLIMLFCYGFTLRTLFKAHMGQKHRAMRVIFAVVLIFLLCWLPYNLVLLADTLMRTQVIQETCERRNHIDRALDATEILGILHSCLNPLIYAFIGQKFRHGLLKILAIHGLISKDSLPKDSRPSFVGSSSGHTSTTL

IC50 [µM] | SMILES
2.2 | CCC(NC(=O)c1ccc2ccccc2c1OCc1ccc(C(F)(F)F)cc1)(C(=O)O)c1ccccc1 (centres unmarked) [Example 10, 2-Phenyl-2-{[1-(4-trifluoromethyl-benzyloxy)-naphthalene-2-carbonyl]-amino}-butyric acid]
6 | O=C(NC1(C(=O)O)CCOCC1)c1cc(F)c2ccccc2c1OCc1ccc(SC(F)(F)F)cc1 [Example 12, 4-{[4-Fluoro-1-(4-trifluoromethylsulfanyl-benzyloxy)-naphthalene-2-carbonyl]-amino}-tetrahydro-pyran-4-carboxylic acid]
